Structures are written as SMILES.

What all share (test): Fluorescence quenching binding assay
The subject of test [1] is Split3WJ.1_up_5IB+Split3WJ.1_down_3FAM (trans 3WJ as 1:1 mix). The conditions noted are these: trans 3WJ Split3WJ.1; two concentration points; FIG. 109. On the procedure:
(§1) This assay will be used to test binding of compounds for RNA three way junction (such as a 38 nt construct). This is a fluorescence quenching assay utilizing FAM as fluorescence tag and Iowa Black as quencher. Tags are attached at the 3′ and 5′ end, respectively. Stable formation of MW upon compound binding would lead to quenching of the FAM fluorescence due to close proximity of the Iowa Black tag. Assay readout: FAM (485-520 nm) Fluorescence Intensity.
(§2) Assay sample buffer used: 10 mM CacoK pH 7.2, 30 mM NaCl. Buffer preparation in Dnase/Rnase Free distilled water (Gibco Life Technologies).
(§3) Tool compounds provided as dry powder are prepared as 50 mM stock solution in 100% d6-DMSO. Stock solutions of 50 mM concentration in d6-DMSO are stored at RT.
(§4) Sample plate: Greiner cat #784076, black, 384 (Dilution plate: Greiner REF 781101, PS-Microplate, 384 well, clear). Fluorescence Intensity device: Envision 1040285
(§5) Daily fresh (10 ml): 1 ml 100 mM CacoK pH 7.2 and 0.3 ml 1 M NaCl filled up to 10 ml with Dnase/Rnase Free distilled water […]
(§6) Calibration of the expected fluorescence signal at various RNA concentrations in either CacoK or NaPO4 buffers was performed first. Experiments in buffers containing salt show distinct fluorescence quenching behavior. […]
(§7) The fluorescence quenching experiment was repeated for compounds Ark0000013 and Ark0000014 to measure binding with: […]

In test [2] the test system is RNA3WJ_1.0.0_5IB_3FAM (cis 3WJ with one unpaired nucleotide). The conditions noted are these: cis 3WJ RNA3WJ_1.0.0_5IB_3FAM; two concentration points; FIG. 109. On the procedure: as §1, §2, §3, §4, §5, §6, §7
Test [3] relates to Split3WJ.2 up_5IB+Split3WJ.2_down_3FAM (trans 3WJ as 1:1 mix). The conditions noted are these: trans 3WJ Split3WJ.2; two concentration points; FIG. 109. As to the method: as §1, §2, §3, §4, §5, §6, §7

Turning to `NCCCCCCCNC(=O)c1ccc2c(c1)C1c3cc(C(=O)NCCCCCCCN)ccc3C2c2ccc(C(=O)NCCCCCCCN)cc21` [Ark0000014, N^2,N^7,N^15-tris(7-aminoheptyl)-9,10-dihydro-9,10-[1,2]benzenoanthracene-2,7,15-tricarboxamide], the “Effect in fluorescence quenching assay” value in test [1] is given as “smaller effect”; in test [2], “smaller effect”; in test [3], “smaller effect on the RNA constructs (Split3WJ_2 shows larger effect)”.
As to `CN(CCCN)CCCNC(=O)c1ccc2c(c1)C1c3cc(C(=O)NCCCN(C)CCCN)ccc3C2c2ccc(C(=O)NCCCN(C)CCCN)cc21` [Ark0000013, N^2,N^7,N^15-tris(3-((3-aminopropyl)(methyl)amino)propyl)-9,10-dihydro-9,10-[1,2]benzenoanthracene-2,7,15-tricarboxamide], the “Effect in fluorescence quenching assay” value in test [1], in test [2] and in test [3] was “significant concentration dependent effect” throughout.

The record behind these values is US20220281860A1, “COMPOUNDS AND METHODS OF TREATING RNA-MEDIATED DISEASES” (Arrakis Therapeutics, Inc., priority 2016, published 2022).
